Measurements taken from patent EP0086660B1, “Renally active tetrapeptides” (SMITHKLINE BECKMAN CORPORATION, priority 1982, dated 1985).
Like-named read-outs stand apart in the source and are kept apart here. Square brackets hold non-standard residues; d marks the D form. Peptide text beside a SMILES is read from it. * marks the point of attachment. Butanoyl(4-(4-HOPh)) = O=C(CCCc1ccc(O)cc1)*

Columns and labels:
anesthetized dogs = assay: anesthetized dog protocol: infusion, measuring MAP, RBF, RVR and HR; format: in vivo
[1] = secondary test
[2] = tested on: spontaneously hypertensive rat
[3] = secondary test; remark: listed apart in the source
[4] = cumulative effects at 300 µg/kg/min

Compound: 4-(4-hydroxyphenyl)-butyryl-L-prolyl-D,L-a-methylphenylalanyl-glycyl-L-proline [Example 2]
- Renal blood flow (anesthetized dogs; cumulative effect, measured after the normal period of the test, increased from 127 ml/min): 162 mL/min
- cardiac rate (HR) (anesthetized dogs; cumulative effect, measured after the normal period of the test, predrug level 140 BPM): 105 BPM
- ED15 [1]: 1.9e-06 µg/kg
- activity in the spontaneously hypertensive rat protocol ([2]; rat, in vivo): not active
- water diuresis ([2]; spontaneously hypertensive rat protocol): slight water diuresis
- reversal of antidiuretic hormone activity (toad bladder): inactive

Compound: NCCc1ccc(O)c(O)c1 [Dopamine, dopamine]
- ED15 [3]: 3.5 µg/kg

Compound: O=C(NCC(=O)N1CCC[C@H]1C(=O)O)[C@@H](Cc1ccccc1)NC(=O)[C@@H]1CCCN1C(=O)CCCc1ccc(O)cc1 [Example 3, N-4-(4-hydroxyphenyl)-butyryl-L-prolyl-D-phenylalanyl-glycyl-L-proline] ({Butanoyl(4-(4-HOPh))}-P[dF]GP-OH)
- HR (anesthetized dogs; [4]): -8
- RBF (anesthetized dogs; [4]): +22
- RVR (anesthetized dogs; cumulative effects at 300 µg/kg/min, parameter name not printed before the value): -18
